The assay is described as follows: Antagonist activity at human P2Y12 receptor assessed as inhibition of ADP-induced platelet-rich plasma aggregation by turbidimetric method.
On to `CCOC(=O)N1CCN(C(=O)[C@H](CCC(=O)O)NC(=O)c2cc(N(C)CCS(C)(=O)=O)cc(-c3ccccc3)n2)CC1` [(S)-5-(4-(ethoxycarbonyl)piperazin-1-yl)-4-(4-(methyl(2-(methylsulfonyl)ethyl)amino)-6-phenylpicolinamido)-5-oxopentanoic acid], for which the IC50 amounted to 7.6 µM. The same measure for `CCOC(=O)N1CCN(C(=O)[C@H](CCC(=O)O)NC(=O)c2cc(N3CCC(O)CC3)cc(-c3ccccc3)n2)CC1` [(4S)5-[4-(Ethoxycarbonyl)piperazin-1-yl]-4-({[4-(4-hydroxypiperidin-1-yl)6-phenylpyridin-2-yl]carbonyl}amino)5-oxopentanoicAcid]: 9.8 µM; for `CCCCCOC(=O)N1CCN(C(=O)[C@H](CCC(=O)O)NC(=O)c2cc(OCCOC)cc(-c3ccccc3)n2)CC1` [(4S)4-({[4-(2-Methoxyethoxy)6-phenylpyridin-2-yl]carbonyl}amino)5-oxo-5-{4-[(pentyloxy)carbonyl]piperazin-1-yl}pentanoic Acid]: 4.3 µM. In the case of `O=C(O)CC[C@H](NC(=O)c1cc(N2CCC(O)CC2)cc(-c2ccccc2)n1)C(=O)N1CCN(C(=O)OCCC2CCCC2)CC1` [(S)-5-(4-((2-cyclopentylethoxy)carbonyl)piperazin-1-yl)-4-(4-(4-hydroxypiperidin-1-yl)-6-phenylpicolinamido)-5-oxopentanoic acid] it was 57.8 µM; in that of `COC(=O)N1CCN(C(=O)[C@H](CCC(=O)O)NC(=O)c2cccc(-c3ccccc3)n2)CC1` [(S)-5-(4-(methoxycarbonyl)piperazin-1-yl)-5-oxo-4-(6-phenylpicolinamido)pentanoic acid], > 100 µM.

As to `CCOC(=O)N1CCN(C(=O)[C@H](CCC(=O)O)NC(=O)c2cc(N3CCC(N)CC3)cc(-c3ccccc3)n2)CC1` [(S)-4-(4-(4-aminopiperidin-1-yl)-6-phenylpicolinamido)-5-(4-(ethoxycarbonyl)piperazin-1-yl)-5-oxopentanoic acid], the IC50 was found to be 2.8 µM.

As for `CCOC(=O)N1CCN(C(=O)[C@H](CCC(=O)O)NC(=O)c2cc(OCCN)cc(-c3ccccc3)n2)CC1` [(4S)4-({[4-(2-Aminoethoxy)6-phenylpyridin-2-yl]carbonyl}-amino)5-[4-(ethoxycarbonyl)iperazin-1-yl]-5-oxopentanoicAcid], the IC50 is 7.5 µM. In the case of `CCCCCOC(=O)N1CCN(C(=O)[C@H](CCC(=O)O)NC(=O)c2cc(N3CCC(O)CC3)cc(-c3ccccc3)n2)CC1` [(S)-4-(4-(4-hydroxypiperidin-1-yl)-6-phenylpicolinamido)-5-oxo-5-(4-(pentyloxycarbonyl)piperazin-1-yl)pentanoic acid] it was 2.4 µM; in that of `CN(CCS(C)(=O)=O)c1cc(C(=O)N[C@@H](CCC(=O)O)C(=O)N2CCN(C(=O)OCCC3CCCC3)CC2)nc(-c2ccccc2)c1` [(S)-5-(4-((2-cyclopentylethoxy)carbonyl)piperazin-1-yl)-4-(4-(methyl(2-(methylsulfonyl)ethyl)amino)-6-phenylpicolinamido)-5-oxopentanoic acid], 17.5 µM. The same measure for `CCOC(=O)N1CCN(C(=O)[C@H](CCC(=O)O)NC(=O)c2cc(OC(CC)C(=O)N(CC)CC)cc(-c3ccccc3)n2)CC1` (stereo partly drawn) [(4S)-4-(4-(1-(diethylamino)-1-oxobutan-2-yloxy)-6-phenylpicolinamido)-5-(4-(ethoxycarbonyl)piperazin-1-yl)-5-oxopentanoic acid]: 3 µM; for `CCOC(=O)N1CCN(C(=O)[C@H](CCC(=O)O)NC(=O)c2cc(NC)cc(-c3ccccc3)n2)CC1` [(4S)5-[4-(Ethoxycarbonyl)piperazin-1-yl]-4-({[4-(methylamino)6-phenylpyridin-2-yl]carbonyl}amino)5-oxopentanoic Acid]: 45 µM; for `CC(C)OC(=O)N1CCN(C(=O)[C@H](CCC(=O)O)NC(=O)c2cc(OCCO)cc(-c3ccccc3)n2)CC1` [(S)-4-(4-(2-hydroxyethoxy)-6-phenylpicolinamido)-5-(4-(isopropoxycarbonyl)piperazin-1-yl)-5-oxopentanoic acid]: 25.6 µM. In the case of `CCOC(=O)N1CCN(C(=O)[C@H](CCC(=O)O)NC(=O)c2cc(NCC3CCNCC3)cc(-c3ccccc3)n2)CC1` [(S)-5-(4-(ethoxycarbonyl)piperazin-1-yl)-5-oxo-4-(6-phenyl-4-(piperidin-4-ylmethylamino)picolinamido)pentanoic acid] it was 8.5 µM; in that of `C=CCOC(=O)N1CCN(C(=O)[C@H](CCC(=O)O)NC(=O)c2cc(OCCCC)cc(-c3ccccc3)n2)CC1` [(S)-5-(4-(allyloxycarbonyl)piperazin-1-yl)-4-(4-butoxy-6-phenylpicolinamido)-5-oxopentanoic acid], 61.7 µM. With `C=CCOC(=O)N1CCN(C(=O)[C@H](CCC(=O)O)NC(=O)c2cc(OCCOC)cc(-c3ccccc3)n2)CC1` [(S)-5-(4-(allyloxycarbonyl)piperazin-1-yl)-4-(4-(2-methoxyethoxy)-6-phenylpicolinamido)-5-oxopentanoic acid], the IC50 turned out to be 13.3 µM. The same measure for `CCCCCOC(=O)N1CCN(C(=O)[C@H](CCC(=O)O)NC(=O)c2cc(OC3CCNCC3)cc(-c3ccccc3)n2)CC1` [(4S)5-Oxo-5-{4-[(pentyloxy)carbonyl]piperazin-1-yl}-4-({[6-phenyl-4-(piperidin-4-yloxy)yridin-2-yl]carbonyl}amino)entanoicAcid]: 0.55 µM; for `C=CCOC(=O)N1CCN(C(=O)[C@H](CCC(=O)O)NC(=O)c2cc(OCCO)cc(-c3ccccc3)n2)CC1` [(S)-5-(4-(allyloxycarbonyl)piperazin-1-yl)-4-(4-(2-hydroxyethoxy)-6-phenylpicolinamido)-5-oxopentanoic acid]: 11.1 µM; for `CCOC(=O)N1CCN(C(=O)[C@H](CCC(=O)O)NC(=O)c2cc(NCCO)cc(-c3ccccc3)n2)CC1` [(S)-5-(4-(ethoxycarbonyl)piperazin-1-yl)-4-(4-(2-hydroxyethylamino)-6-phenylpicolinamido)-5-oxopentanoic acid]: 8.1 µM.

Take `CCCCOC(=O)N1CCN(C(=O)[C@H](CCC(=O)O)NC(=O)c2cc(OCCOC)cc(-c3ccccc3)n2)CC1` [(4S)5-[4-(Butoxycarbonyl)iperazin-1-yl]-4-({[4-(2-methoxyethoxy)6-phenylpyridin-2-yl]carbonyl}amino)5-oxopentanoicAcid]: the IC50 came to 4.4 µM. The same measure for `CCOC(=O)N1CCN(C(=O)[C@H](CCC(=O)O)NC(=O)c2cc(OCC3CCNCC3)cc(-c3ccccc3)n2)CC1` [(S)-5-(4-(ethoxycarbonyl)piperazin-1-yl)-5-oxo-4-(6-phenyl-4-(piperidin-4-ylmethoxy)picolinamido)pentanoic acid]: 4 µM; for `NCC1CCN(c2cc(C(=O)N[C@@H](CCC(=O)O)C(=O)N3CCN(C(=O)OCCC4CCCC4)CC3)nc(-c3ccccc3)c2)CC1` [(S)-4-(4-(4-(aminomethyl)piperidin-1-yl)-6-phenylpicolinamido)-5-(4-((2-cyclopentylethoxy)carbonyl)piperazin-1-yl)-5-oxopentanoic acid]: 14.1 µM; for `CCOC(=O)N1CCN(C(=O)[C@H](CCC(=O)O)NC(=O)c2cc(OC3CCNCC3)cc(-c3ccccc3)n2)CC1` [(S)-5-(4-(ethoxycarbonyl)piperazin-1-yl)-5-oxo-4-(6-phenyl-4-(piperidin-4-yloxy)picolinamido)pentanoic acid]: 1.9 µM.

In general, IC50 refers to the midpoint of a concentration-inhibition curve.

Values taken from BindingDB's records for doi:10.1016/j.bmcl.2009.06.075 (Pfizer, 2009).
